The results in this text go back to patent US20220110318A1, “COMPOSITIONS AND METHODS FOR POLLEN STORAGE AND PRESERVATION” (PIONEER HI-BRED INTERNATIONAL, INC., priority 2018, published 2022).

For experiment [1], the system named is maize pollen. Briefly: Protective compounds: prevention of pollen bursting on germination media. It counts as cell-based. To be noted: loose pollen soaked 20 minutes, compared with fresh pollen without protection. The method, then:
In this example, various putative protective compounds were evaluated for their efficacy in preventing pollen from bursting on germination media. Nine different chemical treatments were applied to loose pollen shed from maize plants. Pollen was soaked in chemical solution for 20 minutes and then placed on media to observe the impact on pollen viability and compared with fresh pollen without protection as control.

The subject of experiment [2] is maize pollen. As to the kind of experiment: Pollen tube formation with germination media comprising surfactant. It counts as cell-based. To be noted: surfactant at both 0.01% and 0.1% in germination media, pollen stored 1° C. for a day, within two hours. The method, then:
Maize pollen was stored in 326C media with 1000 mM Sucrose and 500 mM Betaine at a pH of 9.0. Pollen was stored at 1° C. for a day. After this time period, germination medias comprising surfactant were added in amounts up to five times the volume of storage media. Surfactant conditions tested were 0.1% Tween 20, 0.01% Tween 20, 0.1% Pluronic F68, and 0.01% Pluronic F68 (final concentration). Pollen was observed microscopically prior to replacement of media and two hours after replacement. Pluronic F68, also known as poloxamer 188, is a non-ionic surfactant, a member of a class of polaxamers comprising non-ionic triblock copolymers composed of a central hydrophobic chain of polyoxypropylene flanked by two hydrophilic chains of polyoxyethylene.

With `C[S+](C)[O-]` [5% DMSO, DMSO], the “Preventing pollen from bursting on germination media” value in the experiment on maize pollen [1] was “did not prevent pollen from bursting”. As to Tween 20, in the experiment with maize pollen [2], the Pollen tube formation result is “lysis but no pollen tube formation”.
